Publication PMC2729980 (Planta, 2009)

Target: T1, DkFGT (GST-DkFGT) (Diospyros kaki, UniProt C8KH59)
T1 sequence (C8KH59 1-459): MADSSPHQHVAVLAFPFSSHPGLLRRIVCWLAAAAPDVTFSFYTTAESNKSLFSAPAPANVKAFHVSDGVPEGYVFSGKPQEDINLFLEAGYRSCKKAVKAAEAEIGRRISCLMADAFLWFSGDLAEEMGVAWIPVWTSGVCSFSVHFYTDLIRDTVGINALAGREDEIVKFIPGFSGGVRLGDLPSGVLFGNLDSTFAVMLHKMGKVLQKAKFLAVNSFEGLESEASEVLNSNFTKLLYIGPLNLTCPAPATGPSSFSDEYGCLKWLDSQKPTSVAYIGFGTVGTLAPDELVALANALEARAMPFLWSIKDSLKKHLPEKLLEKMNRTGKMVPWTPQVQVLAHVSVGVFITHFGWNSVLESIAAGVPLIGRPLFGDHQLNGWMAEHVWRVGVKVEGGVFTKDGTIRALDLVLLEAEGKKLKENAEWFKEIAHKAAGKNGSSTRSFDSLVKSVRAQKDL
Experiment: biochemical

Row | Compound | Km [µM]
1 | O=c1c(O)c(-c2ccc(O)cc2)oc2cc(O)cc(O)c12 [kaempferol] | 143
2 | Oc1ccc(-c2[o+]c3cc(O)cc(O)c3cc2O)cc1 [pelargonidin] | 186
